# Laboratory results published in paper PMC12510138, “Asymmetric Synthesis and Biological Evaluation of 1,3‐ and 1,4‐Disubstituted Isoquinoline‐Containing Lipoxin A4 Analogues” (Chemistry (Weinheim an Der Bergstrasse, Germany), 2025).
# Assays:
# [1] = biological target: T1, ALX/FPR2 (Homo sapiens, UniProt P25090); assay: intracellular Ca2+ flux (Fluo-4) in stably double transfected FPR2+/Gαq+ HEK-293 cells; wild-type HEK-293 cells as negative control; partial agonist; assay type: cell-based
# T1 sequence (P25090 1-351): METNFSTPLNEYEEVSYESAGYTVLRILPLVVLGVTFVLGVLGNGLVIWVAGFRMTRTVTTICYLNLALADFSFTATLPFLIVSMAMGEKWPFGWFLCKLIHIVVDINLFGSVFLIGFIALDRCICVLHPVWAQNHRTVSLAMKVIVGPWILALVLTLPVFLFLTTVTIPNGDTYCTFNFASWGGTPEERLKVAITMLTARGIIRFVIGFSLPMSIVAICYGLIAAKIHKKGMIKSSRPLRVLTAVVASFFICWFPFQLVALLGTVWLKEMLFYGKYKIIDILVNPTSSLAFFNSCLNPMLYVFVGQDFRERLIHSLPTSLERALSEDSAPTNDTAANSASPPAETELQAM
# [2] = biological target: T1, ALX/FPR2; assay: intracellular Ca2+ flux (Fluo-4) in stably double transfected FPR2+/Gαq+ HEK-293 cells; wild-type HEK-293 cells as negative control; full endogenous agonist; assay type: cell-based
Structure (SMILES),intracellular Ca2+ flux (Fluo-4) in stably double transfected FPR2+/Gαq+ HEK-293 [1] [nM],intracellular Ca2+ flux (Fluo-4) in stably double transfected FPR2+/Gαq+ HEK-293 [2] [nM]
CCCCC[C@@H](O)c1nc(/C=C/[C@@H](O)[C@@H](O)CCCC(=O)OC)cc2ccccc12 [(1R)-8],100,–
"CCCCC[C@H](O)/C=C/C=C\C=C\C=C\[C@@H](O)[C@@H](O)CCCC(=O)O [compound 1, LXA4]",–,10
